Results: patent US20070196421A1, “Soft tissue implants and drug combination compositions, and use thereof” (priority 2005, published 2007)
Where a name gives a salt, the structure may show the parent alone.

Experiments:
[1] = cited from earlier work; for solubility in alcohol / ethanol (in words): alcohol or ethanol
[2] = system: multiple drug-resistant strains of C. glabrata; experiment: antifungal activity against C. glabrata; type: cell-based; conditions: antifungal agent used in combination with the manganese compound
[3] = system: JNK; experiment: JNK activation; type: cell-based
[4] = system: glucocorticoid receptor; experiment: glucocorticoid receptor trafficking (mechanism study); type: cell-based
[5] = system: AP1; experiment: AP1 activation; type: cell-based
[6] = system: p38; experiment: p38 activation; type: cell-based
[7] = system: NFAT; experiment: NFAT activation, translocation and transactivation; type: cell-based
[8] = system: GRE reporter plasmid in T cells; experiment: transactivation of a transfected GRE reporter plasmid in T cells; type: cell-based
[9] = system: S. pyogenes C721; experiment: MIC by microtitre broth dilution; type: cell-based; conditions: Gram+, wt, Todd Hewitt broth, 37° C., 24 h
Procedure: (§1) MIC assays were conducted essentially as described by Amsterdam, D. 1996, “Susceptibility testing of antimicrobials in liquid media”, p. 52-111, in Loman, V., ed. Antibiotics in laboratory medicine, 4th ed. Williams and Wilkins, Baltimore, Md.

[10] = system: S. aureus ATCC25923 C622; experiment: MIC by microtitre broth dilution; type: cell-based; conditions: Gram+, wt, Mueller Hinton broth, 37° C., 24 h
Procedure: as §1

[11] = system: K. pneumoniae ATCC13883 C238; experiment: MIC by microtitre broth dilution; type: cell-based; conditions: Gram−, wt, Mueller Hinton broth, 37° C., 24 h
Procedure: as §1

[12] = system: S. epidermidis C621; experiment: MIC by microtitre broth dilution; type: cell-based; conditions: Gram+, wt, Mueller Hinton broth, 37° C., 24 h
Procedure: as §1

[13] = system: P. aeruginosa PAE/K799 H187; experiment: MIC by microtitre broth dilution; type: cell-based; conditions: Gram−, wt, Mueller Hinton broth, 37° C., 24 h
Procedure: as §1

[14] = system: E. coli UB1005 C498; experiment: MIC by microtitre broth dilution; type: cell-based; conditions: Gram−, wt, Mueller Hinton broth, 37° C., 24 h
Procedure: as §1

[15] = system: immunosuppressive agents, such as cyclosporine; experiment: potency of immunosuppressive agents (enhancer effect)
[16] = system: TNF-α; experiment: Rat carrageenan-induced paw edema model: TNF-α in paw tissue by ELISA; type: in vivo
Procedure: (§2) A dose-range finding study was performed to determine the anti-inflammatory activity of various ratios of methyl prednisolone acetate and amoxapine in a rat carrageenan-induced paw edema model. […] The molar ratio of methyl prednisolone acetate to amoxapine ranged from 1:1 to 1:300, using total doses of methyl prednisolone acetate of 0.01, 0.03 or 0.1 mg/kg.
(§3) The test agent (a combination of methyl prednisolone acetate and amoxapine), vehicle control, or reference agents (methyl prednisolone acetate, amoxapine, or Depo-Medrol®) were administered in the left hind foot pad of rats. After 60 minutes, paw edema was induced by injection of 100 μl of 1% carrageenan in the same foot pad. The paw volume was measured with a water displacement plethysmometer immediately prior to test agent injection (T−1h), at the time of carrageenan injection (T0h), and at T6h. Animals were euthanized by carbon dioxide inhalation. Paw tissue samples were collected and flash frozen in liquid nitrogen. Samples were assayed for TNF-α by enzyme-linked immunoassay (ELISA).

[17] = system: carrageenan-induced paw edema; experiment: Rat carrageenan-induced paw edema model: paw swelling; type: in vivo; conditions: local injection in paw at T-1 hr, Tmax = 6 hrs
Procedure: as §2, §3

Compound	Minimum inhibitory concentration [9]	Minimum inhibitory concentration [10]	Minimum inhibitory concentration [11]	Minimum inhibitory concentration [12]	Minimum inhibitory concentration [13]	Minimum inhibitory concentration [14]	also measured
NC(=O)c1ncn([C@@H]2O[C@H](CO)[C@@H](O)[C@H]2O)n1 [Ribavirin, ribavirin]							solubility in alcohol / ethanol (in words) [1]: slightly soluble
CCC(C)n1ncn(-c2ccc(N3CCN(c4ccc(OC[C@H]5CO[C@](Cn6cncn6)(c6ccc(Cl)cc6Cl)O5)cc4)CC3)cc2)c1=O (mixture of isomers) [itraconazole]							enhancement of antifungal activity by the manganese compound [2]: enhances
Fc1ccc([C@@H]2CCNC[C@H]2COc2ccc3c(c2)OCO3)cc1 [paroxetine]							JNK activation [3]: inhibition; glucocorticoid receptor trafficking [4]: does not promote; AP1 activation [5]: inhibits; p38 activation [6]: inhibition; NFAT activation, translocation and transactivation [7]: represses; potentiation of prednisolone's ability to transactivate a GRE reporter plasmid [8]: does not promote glucocorticoid receptor trafficking or potentiate
Nc1ccn([C@@H]2O[C@H](CO)[C@@H](O)[C@@H]2O)c(=O)n1 [Cytarabine, cytarabine]	N	N	N	N	N	N	
CCN(CC)C(C)CN1c2ccccc2Sc2ccccc21 (stereo not drawn) [Ethopropazine, ethopropazine]							effect on the potency of immunosuppressive agents [15]: increases the potency
CC[C@@]1(O)C(=O)OCc2c1cc1n(c2=O)Cc2cc3ccccc3nc2-1 [camptothecin, camptothecins]	N	N	N	10^−4 Molar	N	N	
O=c1[nH]cc(F)c(=O)[nH]1 [5-fluorouracil, 5-FU]	10^−4 Molar	10^−7 Molar	10^−6 Molar	10^−7 Molar	10^−5 Molar	10^−6 Molar	
Oc1cc(Cl)ccc1Oc1ccc(Cl)cc1Cl [triclosan, Triclosan]							effect on the potency of immunosuppressive agents [15]: increases the potency
CN(Cc1cnc2nc(N)nc(N)c2n1)c1ccc(C(=O)N[C@@H](CCC(=O)O)C(=O)O)cc1 [methotrexate]	10^−6 Molar	10^−5 Molar	10^−6 Molar	N	N	N	
CC(=O)OCC(=O)[C@@]1(O)CC[C@H]2[C@@H]3C[C@H](C)C4=CC(=O)C=C[C@]4(C)[C@H]3[C@@H](O)C[C@@]21C [MePredAc, methyl prednisolone acetate]							TNF-α ± SEM ([16]; 0.01 mg/kg): 35.9 ± 11.3 pg/g; TNF-α ± SEM ([16]; 0.03 mg/kg): 19.2 ± 3.1 pg/g; TNF-α ± SEM ([16]; 0.1 mg/kg): 28.0 ± 6.0 pg/g; Edema ± SEM ([17]; 0.01 mg/kg): 32.6 ± 5.3%; Edema ± SEM ([17]; 0.03 mg/kg): 26.2 ± 7.0%; Edema ± SEM ([17]; 0.1 mg/kg): 12.2 ± 1.8%
Nc1ncnc2c1ccn2[C@@H]1O[C@H](CO)[C@@H](O)[C@H]1O [tubercidin]	N	N	N	N	N	N	
CN(C)C(=O)C(CCN1CCC(O)(c2ccc(Cl)cc2)CC1)(c1ccccc1)c1ccccc1 [Loperamide]							effect on the potency of immunosuppressive agents [15]: increase the potency
Nc1ccc(/N=N\c2ccccc2)c(N)n1 [phenazopyridine-HCl]							solubility in water (in words) [1]: slightly soluble
COc1cccc2c1C(=O)c1c(O)c3c(c(O)c1C2=O)C[C@@](O)(C(=O)CO)C[C@@H]3O[C@H]1C[C@H](N)[C@H](O)[C@H](C)O1 [doxorubicin]	10^−7 Molar	10^−5 Molar	10^−6 Molar	10^−6 Molar	10^−5 Molar	10^−4 Molar	
O=C1c2c(O)ccc(O)c2C(=O)c2c(NCCNCCO)ccc(NCCNCCO)c21 [mitoxantrone]	10^−6 Molar	10^−5 Molar	10^−6 Molar	10^−5 Molar	10^−5 Molar	10^−5 Molar	
Nc1ccc(/N=N/c2ccccc2)c(N)n1 [Phenazopyridine base, phenazopyridine]							solubility in alcohol / ethanol (in words) [1]: slightly soluble; solubility in water (in words) [1]: slightly soluble
CN(C/C=C/C#CC(C)(C)C)Cc1cccc2ccccc12.Cl [terbinafine, terbinafine hydrochloride]							enhancement of antifungal activity by the manganese compound [2]: enhances
NC(=O)NO [hydroxyurea]	10^−4 Molar	N	N	N	10^−4 Molar	N	
OC(Cn1cncn1)(Cn1cncn1)c1ccc(F)cc1F [fluconazole]							enhancement of antifungal activity by the manganese compound [2]: enhances
Sc1ncc2[nH]cnc2n1 [2-mercaptopurine]	N	N	N	N	N	N	
COc1cc([C@@H]2c3cc4c(cc3[C@@H](O[C@@H]3O[C@@H]5CO[C@@H](C)O[C@H]5[C@H](O)[C@H]3O)[C@H]3COC(=O)[C@H]23)OCO4)cc(OC)c1O [etoposide]	10^−5 Molar	10^−5 Molar	10^−5 Molar	10^−6 Molar	N	N	
N.N.[Cl][Pt][Cl] [cisplatin]	N	N	N	N	10^−4 Molar	N	
Sc1ncnc2nc[nH]c12 [6-mercaptopurine]	N	N	N	N	N	N	
CNCCCC12CCC(c3ccccc31)c1ccccc12 [maprotiline, Maprotiline]							effect on the potency of immunosuppressive agents [15]: increases the potency
CC[C@H](C)C[C@H](C)CCCCCCCCC(=O)N[C@H]1C[C@@H](O)[C@@H](NCCN)NC(=O)[C@@H]2[C@@H](O)CCN2C(=O)[C@H]([C@H](O)CCN)NC(=O)[C@H]([C@H](O)[C@@H](O)c2ccc(O)cc2)NC(=O)[C@@H]2C[C@@H](O)CN2C(=O)[C@H]([C@@H](C)O)NC1=O [caspofungin]							enhancement of antifungal activity by the manganese compound [2]: enhances
